Results reported in patent US6420367B1, “Pyrimidine derivatives exhibiting antitumor activity” (Shionogo & Co., Ltd., priority 1998, dated 2002).
In brackets after ≈: the same amount, converted by molar mass.

Legend:
human colon cancer HT29 = experiment: In vitro cell growth inhibition test, MTT assay; assay type: cell-based; settings: MTT assay 4 days after compound addition
Text: (§1) Test Example 2 In Vitro Cell Growth Inhibition Test Cells and MTT Assay
(§2) Human squamous lung cancer […], human squamous lung cancer Ma44, human lung adenocarcinoma A549, human colon cancer HT29 and human pancreas cancer PANC-1 were used.

[1] = test system: human pancreas cancer PANC-1; experiment: In vitro cell growth inhibition test, MTT assay; assay type: cell-based; settings: MTT assay 4 days after compound addition
Text: as §1, §2

[2] = test system: human squamous lung cancer Ma44; experiment: In vitro cell growth inhibition test, MTT assay; assay type: cell-based; settings: MTT assay 4 days after compound addition
Text: as §1, §2

[3] = test system: human lung adenocarcinoma A549; experiment: In vitro cell growth inhibition test, MTT assay; assay type: cell-based; settings: MTT assay 4 days after compound addition
Text: as §1, §2

[4] = test system: human squamous lung cancer RERF-RC-AI; experiment: In vitro cell growth inhibition test, MTT assay; assay type: cell-based; settings: MTT assay 4 days after compound addition
Text: as §1, §2

[5] = test system: DT-R cells (pRRE3-luc-transfected v-ki-ras-transformed NIH3T3 cells); signal derived from Ras oncogene products; experiment: Inhibitory effect against cellular signaling derived from Ras oncogene products: luciferase reporter, dissociation of DT-R from DT-C activity (MAC); assay type: cell-based, mouse; settings: minimal tested concentration at which luciferase activities of DT-C cells and DT-R cells dissociated
Text: Test Example 1 Inhibitory Effect Against Cellular Signaling Derived From Ras Oncogene Products
1) Establishment of Cell Lines Used in Assay
Based on the reporter plasmid (pGV-P (Toyo Ink, Japan)), in which luciferase gene was ligated to SV40-derived minimal promoter, we constructed a plasmid designated pRRE3-luc by inserting 3 copies of chemically synthesized oligonucleotides (Sequence: CAGGATATGACTCT, derived from mouse NVL-3 (M. A. Reddy et al.(1992)Mol. Endocrinol., 6, 1051)) into upstream of the promoter. v-ki-ras-transformed NIH3T3 cells (DT cells, provided by Dr. Makoto Noda (Kyoto Univ., School of medicine)) were transfected with this plasmid by liposome-mediated transfection and transfected cell lines stably incorporated and maintained each plasmid were obtained. We named pGV-P and pRRE3-transfected cell line as DT-C and DT-R, respectively and used in the assay described below.
2) Preparation of Samples
i) All the cell lines were cultured in Dulbecco's Modified Essential Medium (DMEM: 10% Fetal Calf Serum(FCS: Hyclone, USA)) including […] kanamycin (Meiji Seika, Japan) in humidified incubator under condition of 5% CO2 at 37° C.
ii) DT-C and DT-R cells were seeded at 2500 cells/well into flat-bottom 96 well multiplate (Sumitomo bakelite) and incubated for 24 hours.
iii) Test compounds were prepared as 1 mg/ml DMSO solution.
iv) The solution of test compounds were added to the culture. Tested compounds are used at the concentration from […] to 0.51 ng/ml with by 3-fold dilution.
v) After 24 hours, the culture supernatant was completely aspirated and […] of cell-lysing solution (PGC-50 (Toyo Ink, Japan)) was added before cells were dried up. In order to the cells were lysed completely, multiwell plates were left at room temperature for 10 to 30 min. The plates were wrapped up and stored at −20° C. till the day of measurement.
3) Measurement of Samples
i) Melt the samples by putting 96 well multiplate at 37° C. and add 90 μl/well 25 mM Tris (pH 7.5).
ii) Transfer 50 μl of the sample (110 μl) to the 96 well microplate for measurement (Microlite 1 (Dynatech)).
iii) Measure the samples by the luminometer, LUMINOUS CT9000D (Dia-Yatron, Japan). We used Pickagene luminescence kit PGL2000 or LT2.0 (Toyo Ink, Japan) as substrates for luminescence measurement (50 μl/well).
4) Judgment of the Results
i) The luciferase activity of DT-C cells and DT-R cells were plotted in the graph where the relative activity and the compound concentration were expressed as Y-axis and X-axis, respectively. We judged by the degree of dissociation between the activities of DT-C cells and DT-R cells as an index.
ii) Concretely, efficacy of the compound was expressed by two values described below.
a) Among the points of concentration tested, the minimal concentration (Minimal Active Concentration: MAC), at which the activities of DT-C cells and DT-R cells dissociated, was shown as an index of efficacy of the compound.

Row | IC50, HT29 (human colon cancer HT29) [µg/mL] | IC50, PANC-1 [1] [µg/mL] | IC50, Ma44 [2] [µg/mL] | IC50, A549 [3] [µg/mL] | IC50, RERF-LC-AI [4] [µg/mL] | Compound | MAC (Minimal Active Concentration) [5] [µg/mL]
1 | 0.064 (≈ 0.122 µM) | 0.086 (≈ 0.164 µM) | 0.091 (≈ 0.174 µM) | 0.11 (≈ 0.21 µM) | – | CCNC(=Nc1nc(C)ncc1CSc1nnc(-c2ccc(I)cc2)o1)NCC [Compound A-105] | –
2 | 0.38 (≈ 0.758 µM) | 0.3 (≈ 0.598 µM) | 0.41 (≈ 0.817 µM) | 0.44 (≈ 0.877 µM) | 0.18 (≈ 0.359 µM) | CCNC(=Nc1nc(C)ncc1CSc1nnc(-c2ccc(C(=O)c3ccccc3)cc2)o1)NCC [Compound A-84] | –
3 | 0.044 (≈ 0.102 µM) | 0.048 (≈ 0.111 µM) | 0.11 (≈ 0.255 µM) | 0.13 (≈ 0.301 µM) | 0.03 (≈ 0.0695 µM) | CCNC(=Nc1nc(C)ncc1CSc1nnc(-c2ccccc2Cl)o1)NCC [Compound A-77] | –
4 | 0.1 (≈ 0.242 µM) | – | – | 0.09 (≈ 0.218 µM) | 0.025 (≈ 0.0606 µM) | CCCCNC(N)=Nc1nc(C)ncc1CSc1nnc(-c2ccccc2N)o1 [Compound A-9] | –
5 | 0.065 (≈ 0.153 µM) | – | 5.8 (≈ 13.6 µM) | 4.6 (≈ 10.8 µM) | 0.43 (≈ 1.01 µM) | CCNC(=Nc1ncncc1CSc1nnc(-c2ccc(C(C)C)cc2)o1)NCC [Compound A-115] | –
6 | 0.025 (≈ 0.0556 µM) | – | 1.5 (≈ 3.34 µM) | 4.6 (≈ 10.2 µM) | 2.5 (≈ 5.56 µM) | CCNC(=Nc1ncncc1CSc1nnc(-c2ccc(-n3cccc3)nc2)o1)NCC [Compound D-35] | –
7 | – | – | – | – | 0.0022 (≈ 0.00516 µM) | CCNC(N)=Nc1nc(C)ncc1CSc1nnc(-c2ccccc2NC(C)=O)o1 [Compound A-18] | –
8 | – | 0.085 (≈ 0.187 µM) | 0.85 (≈ 1.87 µM) | 0.18 (≈ 0.396 µM) | – | CCNC(=Nc1nc(C)ncc1CSc1nnc(-c2ccc(NC(C)=O)cc2)o1)NCC [Compound A-56] | –
9 | – | – | – | – | – | CCNC(=Nc1ncncc1CSc1nnc(-c2ccc([N+](=O)[O-])cc2)o1)N(C)C [Compound A-190] | 0.0412
10 | 0.09 (≈ 0.209 µM) | – | 0.26 (≈ 0.604 µM) | – | 0.047 (≈ 0.109 µM) | CCNC(=Nc1nc(C)ncc1CSc1nnc(-c2cc(F)ccc2N)o1)NCC [Compound A-50] | –
11 | 0.017 (≈ 0.04 µM) | – | 8.6 (≈ 20.2 µM) | 1.1 (≈ 2.59 µM) | 0.16 (≈ 0.376 µM) | CCNC(=Nc1ncncc1CSc1nnc(-c2ccc(C(C)=O)cc2)o1)NCC [Compound A-117] | –
12 | – | – | 0.031 (≈ 0.0682 µM) | 0.032 (≈ 0.0704 µM) | 0.0078 (≈ 0.0172 µM) | CCNC(=Nc1nc(C)ncc1CSc1nnc(-c2ccccc2NC(C)=O)o1)NCC [Compound A-25] | 0.370
13 | – | – | – | – | 0.02 (≈ 0.0485 µM) | CNC(N)=Nc1nc(C)ncc1CSc1nnc(-c2ccccc2NC(C)=O)o1 [Compound A-19] | –
14 | 0.052 (≈ 0.118 µM) | 0.077 (≈ 0.174 µM) | 0.21 (≈ 0.476 µM) | 0.79 (≈ 1.79 µM) | – | CCNC(=Nc1nc(C)ncc1CSc1nnc(-c2ccc(OCC)cc2)o1)NCC [Compound A-101] | –
15 | 0.32 (≈ 0.686 µM) | – | 1.8 (≈ 3.86 µM) | – | 0.14 (≈ 0.3 µM) | CCNC(=Nc1nc(C(F)(F)F)ncc1CSc1nnc(-c2ccccc2N)o1)NCC [Compound A-46] | –
16 | – | – | – | – | 0.02 (≈ 0.0522 µM) | CCNC(=Nc1nc(C)ncc1CSc1nnc(-c2ccccc2)o1)NC [Compound A-21] | –
17 | 0.035 (≈ 0.0715 µM) | – | 0.4 (≈ 0.817 µM) | 0.097 (≈ 0.198 µM) | 0.017 (≈ 0.0347 µM) | C=C(Br)CNC(=Nc1ncncc1CSc1nnc(-c2ccc(N)cc2)o1)NCC [Compound A-111] | 0.123
18 | 0.008 (≈ 0.0208 µM) | – | – | 0.012 (≈ 0.0312 µM) | 0.01 (≈ 0.026 µM) | CCNC(N)=Nc1nc(C)ncc1CSc1nnc(-c2ccccc2N)o1 [Compound A-8] | –

Row | IC50, HT29 (human colon cancer HT29) [µg/mL] | IC50, PANC-1 [1] [µg/mL] | IC50, Ma44 [2] [µg/mL] | IC50, A549 [3] [µg/mL] | IC50, RERF-LC-AI [4] [µg/mL] | Compound | MAC (Minimal Active Concentration) [5] [µg/mL]
19 | 0.15 | – | – | 0.16 | 0.2 | CNC(N)=Nc1nc(C)ncc1CSc1nnc(-c2ccccc2N)o1.Cl.Cl [Compound A-5] | –
20 | 0.023 (≈ 0.0489 µM) | 0.025 (≈ 0.0531 µM) | 0.072 (≈ 0.153 µM) | – | 0.016 (≈ 0.034 µM) | CCCNC(=Nc1nc(C)ncc1CSc1nnc(-c2ccc(N)cc2OC)o1)NCCC [Compound A-156] | –
21 | – | – | – | – | – | CNC(=Nc1nc(C)ncc1CSc1nnc(-c2ccc([N+](=O)[O-])cc2)o1)NC.Cl [Compound A-159] | 0.0412
22 | 0.045 (≈ 0.109 µM) | – | 0.83 (≈ 2.02 µM) | 0.32 (≈ 0.778 µM) | 0.029 (≈ 0.0705 µM) | CCNC(=Nc1ncncc1CSc1nnc(-c2ccc(CC)cc2)o1)NCC [Compound A-114] | 1.11
23 | – | – | – | – | 0.02 (≈ 0.0454 µM) | CCNC(N)=Nc1nc(C)ncc1CSc1nnc(-c2ccccc2NC(=O)CC)o1 [Compound A-22] | –
24 | 0.013 (≈ 0.0325 µM) | – | 3.1 (≈ 7.76 µM) | 3.5 (≈ 8.76 µM) | 0.013 (≈ 0.0325 µM) | CCNC(=Nc1ncncc1CSc1nnc(-c2cnc(C)cn2)o1)NCC [Compound D-32] | –
25 | 0.049 (≈ 0.115 µM) | – | 0.071 (≈ 0.166 µM) | – | – | CCNC(=Nc1nc(C)ncc1CSc1nnc(-c2ccccc2NCC)o1)NC [Compound A-40] | 0.370
26 | – | – | 0.025 (≈ 0.055 µM) | 0.041 (≈ 0.0902 µM) | 0.0078 (≈ 0.0172 µM) | CCNC(=Nc1nc(C)ncc1CSc1nnc(-c2ccccc2NC(=O)CC)o1)NC [Compound A-23] | 0.123
27 | – | – | – | – | – | CCNC(=Nc1nc(C)ncc1COc1nnc(-c2ccccc2N)o1)NC [Compound B-2] | 0.370
28 | 0.072 (≈ 0.169 µM) | – | 4.2 (≈ 9.87 µM) | 3.8 (≈ 8.93 µM) | 0.62 (≈ 1.46 µM) | CCCc1ccc(-c2nnc(SCc3cncnc3N=C(NCC)NCC)o2)cc1 [Compound A-116] | –
29 | – | – | 1 (≈ 2.5 µM) | 0.69 (≈ 1.73 µM) | 0.079 (≈ 0.198 µM) | CCNC(=Nc1nc(C)ncc1CSc1nnc(-c2ccccc2O)o1)NC [Compound A-27] | –
30 | 0.023 (≈ 0.0558 µM) | 0.028 (≈ 0.0679 µM) | 0.034 (≈ 0.0824 µM) | – | 0.014 (≈ 0.0339 µM) | CCNC(=Nc1nc(C)ncc1CSc1nnc(-c2ccccc2NC)o1)NC [Compound A-38] | 0.0412
31 | 0.51 (≈ 1.14 µM) | – | – | – | 0.87 (≈ 1.95 µM) | Cc1ncc(CSc2nnc(-c3ccccc3N)o2)c(N=C(N)NCc2ccccc2)n1 [Compound A-12] | –
32 | 0.014 (≈ 0.0302 µM) | – | 0.17 (≈ 0.367 µM) | 0.028 (≈ 0.0605 µM) | 0.012 (≈ 0.0259 µM) | CCNC(=Nc1ncncc1CSc1nnc(-c2ccc([N+](=O)[O-])cc2Cl)o1)NCC [Compound A-126] | 0.0137
33 | 0.076 (≈ 0.183 µM) | – | 1.2 (≈ 2.9 µM) | 0.62 (≈ 1.5 µM) | 0.027 (≈ 0.0651 µM) | CCNC(=Nc1ncncc1CSc1nnc(-c2ccc(N)cc2)o1)NCCO [Compound A-113] | –
34 | – | – | – | – | 0.02 (≈ 0.0469 µM) | CCC(=O)Nc1ccccc1-c1nnc(SCc2cnc(C)nc2N=C(N)NC)o1 [Compound A-20] | –
35 | – | 0.017 (≈ 0.0394 µM) | 0.024 (≈ 0.0556 µM) | – | 0.0078 (≈ 0.0181 µM) | CCNC(=Nc1nc(C)ncc1CSc1nnc(-c2ccc(Cl)cc2)o1)NCC [Compound A-62] | 0.0412
36 | 0.072 (≈ 0.175 µM) | – | 0.065 (≈ 0.158 µM) | – | – | CCNC(=Nc1nc(C)ncc1CSc1nnc(-c2cccc(N)c2)o1)NCC [Compound A-41] | –
